From patent US20060130244A1, “Aqueous composition for dyeing keratin fibres comprising a dye and a specific block copolymer” (priority 2004, published 2006) come the findings set out here.

Data set [1] in a line: Stability of dye in alkaline oxidizing medium (test tube, visual coloration). The class given is physicochemical. Particulars: ammoniacal solution. The procedure:
The dye tested is Basic Red 76.
In a first trial, an ammoniacal solution at 0.04% by weight of dye at pH=9 was added to a test tube and the solution was left to stand for 1 hour.
In a second trial, an ammoniacal solution at 0.04% by weight of dye at pH=9 was added to a test tube in the presence of a poly(sodium acrylate-b-acrylamide) diblock copolymer, in which each block has, respectively, a number-average molecular mass of 5000 and 30 000, and in the presence of aqueous hydrogen peroxide at 3%, and the mixture is left to stand for 1 hour.

Data set [2] in a line: Solubility of dye in aqueous medium (test tube, visual appearance). The data set is classed as physicochemical. The procedure:
The dye tested is Astrazon Orange R (or Basic Orange 22).
In a first trial, an aqueous solution comprising 0.04% of dye is added to a test tube.
In a second trial, a solution comprising 0.04% of dye, followed by 0.05% by weight of a poly(sodium acrylate-b-acrylamide) diblock copolymer (copolymer of Example 2), are added to a test tube. […] This thus attests to the ability of the block polymers in accordance with the invention to increase the solubility of dyes that are difficult to solubilize in an aqueous medium.

For the molecule `COc1ccccc1N=Nc1c(O)ccc2ccc([N+](C)(C)C)cc12.[Cl-]` [Basic Red 76], the “coloration of the solution after standing 1 hour, dye alone” value in data set [1] (0.04% by weight of dye, pH 9, no copolymer) is “visible loss of coloration”. Besides, the “coloration of the solution after standing 1 hour, with block copolymer” value in data set [1] (0.04% dye, pH 9, with poly(sodium acrylate-b-acrylamide) diblock copolymer (5000/30 000) and 3% aqueous hydrogen peroxide) is on record as “remains stable”.

As for Astrazon Orange R, the “appearance of aqueous solution, with block copolymer” value in data set [2] (0.04% of dye plus 0.05% by weight poly(sodium acrylate-b-acrylamide) diblock copolymer) is recorded as “clear solution”. The “appearance of aqueous solution, dye alone” value in data set [2] (aqueous solution, 0.04% of dye, no copolymer) is on record as “cloudy appearance”.
